Data from US20230256049A1, “MATERIALS AND METHODS FOR THE PREVENTION AND TREATMENT OF VIRAL RESPIRATORY DISEASES” (priority 2020, published 2023).
Read-outs that look alike come from different tables or passages of the source. Where a SMILES comes first, the peptide text is derived from it. [ ]: non-standard residue; d: D form.

Experiments:
[1] = tested on: SARS-CoV-2 (2019-nCoV/USA-WA1/2020 strain)
SARS-CoV-2 = conditions: cited from earlier work; for treatment outcome in SARS-CoV-2 / COVID-19 patients: remdesivir: double-blind, randomized, placebo-controlled trial in hospitalized adults; for patient morbidity risk: treatment of SARS-CoV-2
[2] = tested on: SARS-CoV-2 (2019-nCoV/USA-WA1/2020 strain); conditions: VERO E6 (FIG. 5C)
[3] = tested on: HIV-1 (primary R5 JR-CSF); assay: HIV-1 in vitro model, HeLa TZM reporter cells (alanine scan); type: cell-based; conditions: β-galactosidase at 48 h

CC[C@H](C)[C@H](NC(=O)[C@H](CC(C)C)NC(=O)[C@H](CC(=O)O)NC(=O)[C@@H](NC(=O)[C@H](Cc1c[nH]c2ccccc12)NC(=O)[C@H](CC(=O)O)NC(=O)[C@H](CCCNC(=N)N)NC(=O)[C@H](Cc1c[nH]c2ccccc12)NC(=O)[C@@H](NC(=O)[C@@H](N)CO)[C@@H](C)CC)C(C)C)C(=O)N[C@@H](CS)C(=O)N[C@@H](CCC(=O)O)C(=O)N[C@@H](Cc1ccccc1)C(=O)N[C@@H](CC(C)C)C(=O)N[C@@H](CO)C(=O)N[C@@H](CC(=O)O)C(=O)N[C@@H](Cc1c[nH]c2ccccc12)C(=O)N[C@@H](CCCCN)C(=O)O [Peptide 346-007, SIWRDWVDLICEFLSDWK] (H-SIWRDWVDLICEFLSDWK-OH; N-terminus and C-terminus assumed)
potency relative to the other peptides tested [1]: ca. double the potency of the other peptides tested

CCN(CC)CCCC(C)Nc1ccnc2cc(Cl)ccc12 (stereo not drawn) [chloroquine]
treatment outcome in SARS-CoV-2 / COVID-19 patients (SARS-CoV-2): failed | patient morbidity risk (SARS-CoV-2): increased patient morbidity risk

CC[C@@H](C)[C@@H](NC(=O)[C@@H](CC(=O)O)NC(=O)[C@@H](CCCNC(=N)N)NC(=O)[C@@H](CC(C)C)NC(=O)[C@@H](Cc1c[nH]c2ccccc12)NC(=O)[C@H](N)CO)C(=O)N[C@H](Cc1c[nH]c2ccccc12)C(=O)N[C@H](CC(=O)O)C(=O)N[C@H](Cc1c[nH]c2ccccc12)C(=O)N[C@@H](C(=O)N[C@H](CS)C(=O)N[C@H](CCC(=O)O)C(=O)N[C@@H](C(=O)N[C@H](CC(C)C)C(=O)N[C@H](CO)C(=O)N[C@H](CC(=O)O)C(=O)N[C@H](Cc1ccccc1)C(=O)N[C@H](CCCCN)C(=O)O)C(C)C)[C@H](C)CC [Peptide 346-002, swlrdiwdwicevlsdfk] (H-[dS][dW][dL][dR][dD][dI][dW][dD][dW][dI][dC][dE][dV][dL][dS][dD][dF][dK]-OH; N-terminus and C-terminus assumed)
EC50 ([1]; 2019-nCoV/USA-WA1/2020 strain, 48 h): 13 µM

CC[C@H](C)[C@H](NC(=O)[C@H](CC(=O)O)NC(=O)[C@H](CCCNC(=N)N)NC(=O)[C@H](CC(C)C)NC(=O)[C@H](Cc1c[nH]c2ccccc12)NC(=O)[C@@H](N)CO)C(=O)N[C@@H](Cc1c[nH]c2ccccc12)C(=O)N[C@@H](CC(=O)O)C(=O)N[C@@H](Cc1c[nH]c2ccccc12)C(=O)N[C@H](C(=O)N[C@@H](CS)C(=O)N[C@@H](CCC(=O)O)C(=O)N[C@H](C(=O)N[C@@H](CC(C)C)C(=O)N[C@@H](CO)C(=O)N[C@@H](CC(=O)O)C(=O)N[C@@H](Cc1ccccc1)C(=O)N[C@@H](CCCCN)C(=O)O)C(C)C)[C@@H](C)CC [Peptide 346-001, SWLRDIWDWICEVLSDFK] (H-SWLRDIWDWICEVLSDFK-OH; N-terminus and C-terminus assumed)
reduction on viral copy numbers ([2]; 50 μM dosing concentration): > 5 orders of magnitude | reduction on viral copy numbers ([2]; 125 μM dosing concentration): > 7 orders of magnitude | antiviral activity against HIV-1 (in vitro HIV-1 inhibition) [3]: effective against HIV-1

CCN(CCO)CCCC(C)Nc1ccnc2cc(Cl)ccc12 (stereo not drawn) [hydroxychloroquine]
treatment outcome in SARS-CoV-2 / COVID-19 patients (SARS-CoV-2): failed | patient morbidity risk (SARS-CoV-2): increased patient morbidity risk
